Experimental data from article PMC10514136, “Peptide-conjugated antimiRs improve myotonic dystrophy type 1 phenotypes by promoting endogenous MBNL1 expression” (Molecular Therapy. Nucleic Acids, 2023).
Where “and” joins values, the source holds several entries; their conditions need not be identical. Equal entries are not always repeated.

Legend:
Clcn1 exon 7a = assay: Alternative splicing of Clcn1 exon 7a in muscle by RT-PCR (PSI, splice recovery); type: in vivo, mouse; conditions: HSALR mice, individual mice; for Percentage spliced-in (PSI) Clcn1 Gast: 9.2 mg/kg (mean) i.v. x3, day 45, gastrocnemius; for Percentage spliced-in (PSI) Clcn1 Quads: 9.2 mg/kg (mean) i.v. x3, day 45, quadriceps
Experimental: Total RNA from murine gastrocnemius and quadriceps muscle was isolated using the miRNeasy Mini Kit (QIAGEN, Hilden, Germany) according to the manufacturer’s instructions. One microgram of RNA was digested with DNase I (Invitrogen, Carlsbad, CA) and reverse transcribed with SuperScript II (Invitrogen) using random hexanucleotides. For subsequent PCR reactions, 20 ng of cDNA was used with GoTaq polymerase (Promega). Specific primers were used to analyze the alternative splicing of Nfix, Atp2a1, and Clcn1 in mouse samples (both muscles). Gapdh levels established the endogenous reference levels using 0.2 ng of cDNA. PCR products were separated on a 2% agarose gel and quantified using ImageJ software (NIH, Bethesda, MD). PSR index was defined as value%SI minus X¯%DSI , divided by X¯%DSI minus X¯%HSI (SI, splicing inclusion of each sample; DSI, disease splicing inclusion; HSI, healthy splicing inclusion). Overall, PSR indicates the amount in both muscles analyzed. Primer sequences and exons analyzed are available in Cerro-Herreros et al.[20] In the case of off-targets, interleukins, and muscle regeneration marker Mstn-1, primers sequences are available in Table S5. We used 1 ng of mouse tissue cDNA as a template for multiplex qPCR using the QuantiFast Probe PCR Kit reagent. Commercial TaqMan probes (QIAGEN) were used for mouse (Mbnl1 and Mbnl2; FAM-labeled probes) and reference (GAPDH; MAX-labeled probe) genes. Results were normalized to Gapdh endogenous gene expression.
We used homozygous transgenic HSA^LR (line 20 b) mice,[90] which were kindly provided by Dr Thornton (Rochester, NY) and were housed and bred in our animal facility. Experimental groups were FVB as healthy control and HSA^LR treated with a scrambled ON (SC) and PBS as negative controls, and HSA^LR mice treated with all six experimental CPP-PMOs. The mice were randomly allocated to the different treatments as follows: in each cage, each mouse was ear-marked as it was taken out, and each mouse was then assigned to a different treatment. […] Mice were sacrificed 45 days after the first injection and the tissues of interest were frozen in liquid nitrogen for the molecular and histological assays. All the mice used in this study ranged from 5 to 5.5 months of age and all were males.

Mbnl1 protein = assay: Western blot of Mbnl1 in mouse muscle; type: in vivo; parameters: scale not given here; conditions: HSALR mice, quadriceps, same value given for every mouse of a treatment group
Experimental: (§1) A 96-well plate QDB assay was used[87] to determine MBNL1 protein levels in all replicates and concentrations of each ON tested. This technique allows for high-throughput screening of low protein concentration samples over conventional western blot (WB) (Figure S9).[88] Cell samples (1 μg/well) and mice samples (2 μg/well) were prepared with 4× loading buffer, denatured (100°C for 5 min) and loaded in QDB plates (Quanticision Diagnostics, Research Triangle Park, NC). For the quantification of in vitro samples, the QDB was performed exactly as described in Moreno et al.[87] Each cell sample was loaded in quadruplicate in two different plates; one was used to detect MBNL1 (it was incubated overnight with primary mouse anti-MBNL1 [1:1,000, Abcam, ab77017]) and the other for GAPDH (it was incubated overnight with primary mouse anti-GAPDH [1:500, Santa Cruz, clone G-9]), which was used here as an endogenous control. For Mbnl1 quantification in mouse muscle tissues, we implemented the following modifications: each sample was loaded in quadruplicate on three different plates. One was used to detect Mbnl1 with a mouse MB1a(4A8) antibody (DSHB, Iowa City, IA) using a 1:200 dilution. A second plate was used to quantify tubulin (endogenous normalization control) with a mouse 12G10 antibody (DSHB) using a 1:1,000 dilution. A third plate was used to quantify IgG signal (negative control to subtract background) using an anti-mouse-IgG secondary antibody (Sigma-Aldrich) at 1:3,500 dilution. This subtraction was necessary due to an unspecific IgG signal could be observed in mouse samples (Figures S10A–S10D). All primary antibodies were detected using horseradish peroxidase-conjugated anti-mouse-IgG secondary antibody (1:5,000 for the anti-mouse plate, 1:2,000 for cell plates, and 1:3,500 for mouse plates [Sigma-Aldrich, MO]). Immunoreactive bands were detected using Pierce ECL Western reagent (Thermo Scientific), and luminescence levels were determined using an Infinite M200 PRO plate reader (Tecan). The validity of this correction for QDB quantification of mouse samples was confirmed by performing a series of experiments determining both the window of linearity of the assay (2–5 μg protein, Figures S10A–S10B) and the comparison with data obtained by WB in a subset of samples (Figures S10E–S10H), obtaining a correlation of 0.9927 for MBNL1 and 0.8678 for tubulin (in the case of quadriceps), and 0.9821 for MBNL1 and 0.9699 for tubulin (in gastrocnemius). For WB assay in quadriceps (Figure S10I), samples were loaded in pools of each treatment to have a representative WB of all the treatments tested. WB assay was performed as described previously.[20]

[1] = tested on: MBNL1 protein levels in DM1 cells; assay: MBNL1 protein levels by QDB in DM1 cells after gymnotic delivery; type: cell-based, human; conditions: for MBNL1 protein levels vs untreated DM1 cells: gymnosis at the EC50 concentration of each compound; for MBNL1 fold change: gymnotic delivery
Experimental: Immortalized MyoD-inducible (doxycycline) DM1 and control fibroblasts were kindly provided by Dr Furling (Institute of Myology, Paris, France).[38] For the activity assay, cells were seeded in 6-well plates at a density of 8 × 10^4 cells/well and grown in DMEM with 4.5 g/L glucose, 1% P/S, and 10% FBS (Sigma, St. Louis, MO). To transdifferentiate fibroblasts into myoblasts by inducing MyoD expression, the cells were plated in muscle differentiation medium containing DMEM with 4.5 g L^−1 glucose, 1% P/S, 2% horse serum, 1% apo-transferrin (10 mg mL^−1), 0.1% insulin (10 mg mL^−1), and 0.02% doxycycline (10 mg mL^−1). In all cases, the cells were grown at 37°C in a humidified atmosphere containing 5% CO2. Transdifferentiation was induced at day 0, and transfection was performed by lipofection with X-tremeGENE HP (Roche, Basel, Switzerland) 24 h later, with antimiRs and test compounds in the cell medium at different concentrations (from 0.4 nM to 5 μM). The medium was replaced with fresh differentiation medium 4 h afterward. In the gymnosis assay, test compounds were added to the culture medium only at the corresponding EC50 concentration. Cells were collected on day 4 of differentiation and were processed for protein extraction.
as §1

[2] = tested on: IL-1β, IL-6, MCP-1, IL-12β, TNF-α, IL-15, Mstn-1; assay: Proinflammatory cytokines and Mstn-1 in quadriceps by qRT-PCR; type: in vivo, mouse
[3] = HSALR mice, 9.2 mg/kg (mean) i.v. x3, day 45, qRT-PCR

Substance: 6aKC-23b (antisense GGUAAUCCCUGGCAAUGUGAU; all phosphorodiamidate morpholino (PMO), T or U not given here; Pip6aKC peptide conjugated)
- Percentage spliced-in (PSI) Clcn1 Gast (Clcn1 exon 7a): 15.22% and 18.35% and 23.17% and 29.03% and 31.54%
- Percentage spliced-in (PSI) Clcn1 Quads (Clcn1 exon 7a): 24.44% and 30.63% and 35.11% and 37.69% and 28.33%
- Mbnl1 Quads, WB assay (Mbnl1 protein; western blot): 1.13
- MBNL1 protein levels vs untreated DM1 cells [1]: significant increases observed in MBNL1 protein levels
- MBNL1 fold change ([1]; 200 nM): ~2.5 fold

Substance: 6aKC-218 (antisense ACAUGGUUAGAUCAAGCACAA; all phosphorodiamidate morpholino (PMO), T or U not given here; Pip6aKC peptide conjugated)
- Percentage spliced-in (PSI) Clcn1 Gast (Clcn1 exon 7a): 28.37% and 38.26% and 18.26% and 24.01% and 28.56%
- Percentage spliced-in (PSI) Clcn1 Quads (Clcn1 exon 7a): 33.68% and 24.84% and 25.74% and 41.25% and 27.67%
- Mbnl1 Quads, WB assay (Mbnl1 protein; protein): 1.02
- MBNL1 protein levels vs untreated DM1 cells [1]: significant increases observed in MBNL1 protein levels
- MBNL1 fold change ([1]; 1 μM): ~2 fold

Substance: 9b2-23b (antisense GGUAAUCCCUGGCAAUGUGAU; all phosphorodiamidate morpholino (PMO), T or U not given here; Pip9b2 peptide conjugated)
- Percentage spliced-in (PSI) Clcn1 Gast (Clcn1 exon 7a): 26.85% and 32.69% and 33.28% and 26.86% and 11.37%
- Percentage spliced-in (PSI) Clcn1 Quads (Clcn1 exon 7a): 0.61%
- Mbnl1 Quads, WB assay (Mbnl1 protein; protein): 1.46
- Mbnl1 Quads, WB assay (Mbnl1 protein; western blot): 1.46
- Mstn-1 expression in quadriceps [2, 3]: downregulation of Mstn-1
- IL1β Quads (2^-ddCt qPCR assays) ([2]; mouse, in vivo): 0.49
- IL6 Quads (2^-ddCt qPCR assays) ([2]; mouse, in vivo): 0.39
- IL12β Quads (2^-ddCt qPCR assays) ([2]; mouse, in vivo): 0.57
- IL15 Quads (2^-ddCt qPCR assays) ([2]; mouse, in vivo): 2.25
- MCP-1 Quads (2^-ddCt qPCR assays) ([2]; mouse, in vivo): 0.55
- TNF-α Quads (2^-ddCt qPCR assays) ([2]; mouse, in vivo): 0.26

Substance: 9b2-218 (antisense ACAUGGUUAGAUCAAGCACAA; all phosphorodiamidate morpholino (PMO), T or U not given here; Pip9b2 peptide conjugated)
- Percentage spliced-in (PSI) Clcn1 Gast (Clcn1 exon 7a): 5.28% and 30.49% and 30.67% and 18.06% and 25.23%
- Percentage spliced-in (PSI) Clcn1 Quads (Clcn1 exon 7a): 4.09%
- Mbnl1 Quads, WB assay (Mbnl1 protein; protein): 1.58
- MBNL1 protein levels vs untreated DM1 cells [1]: significant increases observed in MBNL1 protein levels

Substance: 9b2KC-23b (antisense GGUAAUCCCUGGCAAUGUGAU; all phosphorodiamidate morpholino (PMO), T or U not given here; Pip9b2KC peptide conjugated)
- Percentage spliced-in (PSI) Clcn1 Gast (Clcn1 exon 7a): 18.78% and 26.33% and 30.11% and 15.58% and 38.58%
- Percentage spliced-in (PSI) Clcn1 Quads (Clcn1 exon 7a): 29.66% and 22.47% and 19.41% and 27.99% and 26.94%
- Mbnl1 Quads, WB assay (Mbnl1 protein; western blot): 1.36
- Mstn-1 expression in quadriceps [2, 3]: downregulation of Mstn-1
- MBNL1 levels, gymnosis compared with transfection ([1]; each compound at its EC50 concentration): identical MBNL1 modulation results by transfection and gymnosis

Substance: 9b2KC-218 (antisense ACAUGGUUAGAUCAAGCACAA; all phosphorodiamidate morpholino (PMO), T or U not given here; Pip9b2KC peptide conjugated)
- Percentage spliced-in (PSI) Clcn1 Gast (Clcn1 exon 7a): 32.73% and 22.25% and 31.59% and 22.57% and 29.41%
- Percentage spliced-in (PSI) Clcn1 Quads (Clcn1 exon 7a): 2.19% and 27.06% and 25.84% and 30.53% and 22.73%
- Mbnl1 Quads, WB assay (Mbnl1 protein; protein): 1.44

Substance: TCTTACCTCAGTTACAATTTA-Pip9b2 [Scramble, reference compound]
- Percentage spliced-in (PSI) Clcn1 Gast (Clcn1 exon 7a): 12.37% and 14.67% and 42.81% and 26.86% and 36.37%
- Percentage spliced-in (PSI) Clcn1 Quads (Clcn1 exon 7a): 28.91% and 16.71% and 28.33% and 34.05% and 38.65%
- Mbnl1 Quads, WB assay (Mbnl1 protein; protein): 1.00
- IL-6 and IL-15 expression in quadriceps [2, 3]: reduced levels of IL-6 and IL-15
- Mstn-1 expression in quadriceps [2, 3]: not detected
